Non-standard residues stand in square brackets, D forms with d. Residues, ends and D or L forms follow the SMILES beside them. No end group written: not given here. Pmp = N[C@@H](Cc1ccc(CP(=O)(O)O)cc1)C(=O)O; dPmp = N[C@H](Cc1ccc(CP(=O)(O)O)cc1)C(=O)O; pY = N[C@@H](Cc1ccc(OP(=O)(O)O)cc1)C(=O)O
How the values were obtained:
[1] = target: T1, N-terminal p85 SH2/GST fusion protein (Homo sapiens, UniProt P27986); experiment: biochemical; format: binding
T1 construct: N-terminal p85 SH2/GST fusion proteins (100 nM)
Procedure: Peptide Binding to Isolated Glutathione S-Transferase/SH2 Domain Fusion Proteins was determined as follows. N-terminal p85 SH2/GST fusion proteins (100 nM) (Hu et al., 1992, Mol. Cell. Biol. 12:981-990), 35 fmol of HPLC-purified, [^125 I]Bolton-Hunter-treated phosphopeptide (67 nCi) and varying concentrations of unlabeled peptides were combined in 200 μl total volume of 20 mM tris-HCl, 250 mM NaCl, 0.1% bovine serum albumin, 10 mM dithiothreitol, pH 7.4. Glutathione-agarose (25 μl of a 1:4 aqueous slurry, Molecular Probes) was added and the samples were incubated at 22° C. for 4 h. Following centrifugation for 5 min at 12,000×g, supernatant solutions were removed by aspiration and [^125 I]radioactivity associated with the pellets was determined with a […].
Phosphopeptide and phosphonopeptide binding to p85 SH2 domains. To investigate the mechanism of phosphonopeptide inhibition of association direct binding to an isolated SH2 domain of the p85 of PI 3-kinase was analyzed. In the assay, tracer amounts of [^125 I]-labeled phosphopeptide, SH2 domain/GST fusion protein, and varying concentrations of unlabeled peptides were incubated together along with glutathione-agarose. […] ID50 values were determined as the concentration of unlabeled peptide required to inhibit 50% of specific [^125 I]phosphopeptide binding. […]

[2] = tested on: IRS-1/PI 3-kinase association; experiment: Inhibition of association of PI 3-kinase activity (CHO cell extract) with immobilized phosphorylated IRS-1; format: biochemical; conditions: dose-response studies
Procedure: Inhibiting interactions between IRS-1 and PI 3-kinase IRS-1 produced in a baculovirus expression system was adsorbed to anti-peptide (IRS-1) antibodies and phosphorylated by solubilized insulin receptors (which were then washed away). […] After incubation and additional washing, PI 3-kinase activity associated with the immobilized IRS-1 was determined as described, Auger et al. PI 3-kinase activity associated with IRS-1 only after phosphorylation by the insulin receptor. Various peptides were added during incubation of immobilized IRS-1 with the ChO cell extract (PI 3-kinase) to determine their ability to block association. Concentration dependent effects of phosphorylated vs. unphosphorylated middle T and IRS-1 […] YMXM sequences were determined. […] A detailed study of these effects is a major target of this proposal.

[3] = target: T2, association of PtdIns 3-kinase with mT/pp60^c-src complex (Rattus norvegicus, UniProt Q63787); experiment: Peptide competition of PtdIns 3-kinase association with immunopurified mT/pp60^c-src; format: biochemical; conditions: Tran^35 S-labelled Rat-1 whole cell lysates, gel electrophoresis
T2 construct: from tissue; host or cells: rat liver (PtdIns 3-kinase); mT/pp60c-src complex immunopurified from baculovirus-infected Sf9 cells
Procedure: (§1) In vitro association of phosphatidylinositol 3-kinase with immunopurified mT/pp60^c-src was assayed as follows. Washed mT/pp60^c-src immune complexes were incubated with purified PtdIns 3-kinase in 750 μl to 1 ml of standard lysis buffer (see above) at 4° C. on a platform rocker. The typical incubation was for 2-3 hours after which the complexes were collected by a brief centrifugation and washed twice with 1% […], twice with 0.5M LiCl in 0.1M Tris-HCl, and twice with TNE.
(§2) Mammalian whole cell lysates were prepared from confluent 10 cm cell culture plates. The monolayer was washed once with 4° C. PBS and lysed in 1.0 ml of standard lysis buffer. After 10 minutes of incubation on a rocker platform at 4° C., the cells were scrape harvested and lysates cleared by centrifugation at 12,000×g for 5 minutes at 4° C. Lysates were used immediately for association experiments with the immunopurified mT/pp60^c-src complex.
(§3) Phosphatidylinositol kinase assays and protein kinase assays were performed as follows. Phosphatidylinositol kinase assays were performed directly on the immune complex as described, Whitman et al., 1985, supra; Auger et al., 1989, supra. Sonicated phospholipids were added to the washed beads and the reaction was initiated with the addition of 50 μM ATP, 5-25 μCi [γ^32 P]ATP (3000/Ci/mmole), 5 mM MgCl2 in 20 mM HEPES (pH 7.5). Reactions were incubated for 5 minutes at room temperature. The 50 μl reactions were stopped by the addition of 80 μl of 1M HCl and 1 μl of 500 mM EDTA. The lipids were extracted with 160 μl of methanol:chloroform (1:1) and the organic layer was collected for analysis.
(§4) The major site of tyrosine phosphorylation on mT by pp60^c-src is tyrosine 315. […]
(§5) Proteins that were prevented from associating with the mT/pp60^c-src complex by the phosphorylated peptide were also determined. […]

[4] = tested on: association of PtdIns 3-kinase with mT/pp60^c-src complex; experiment: as above; format: biochemical; conditions: peptide pre-incubated with whole cell lysates
Procedure: as §1, §2, §3, §4, §5

[5] = target: T3, association between pp60^c-grc /mT and PI 3-kinase (Mus musculus, UniProt P26450); conditions: presence of vanadate; Auger et al., 1992; cited from earlier work
T3 construct: endogenous in cells; host or cells: Balb/3T3 cells (PI 3-kinase); pp60c-src/mT from baculovirus-infected Sf9 cells

[6] = target: T4, p85 SH2 domains (SH2/GST fusion protein) (Homo sapiens, UniProt P27986); experiment: Biospecific interaction analysis of binding to p85 SH2 domains; conditions: isolated SH2 domains of PI 3-kinase p85; overview statement
T4 construct: GST
Procedure: Therefore, mT-pY315 binding to p85 SH2 domains was analyzed using biospecific interaction analysis as previously described to obtain a more accurate estimate for KD. Series of data were obtained during real-time binding experiments with different concentrations of SH2/GST fusion protein (data not shown).

[7] = target: T5, Rat PTPase 1B (Rattus norvegicus, UniProt P20417); experiment: PTPase 1B peptide dephosphorylation (Km) and inhibition (Ki); format: biochemical
T5 construct: cloning the full-length cDNA into the bacterial expression vector, PKK233-2; made in house; host or cells: bacteria (vector PKK233-2)
T5 sequence (P20417 1-432): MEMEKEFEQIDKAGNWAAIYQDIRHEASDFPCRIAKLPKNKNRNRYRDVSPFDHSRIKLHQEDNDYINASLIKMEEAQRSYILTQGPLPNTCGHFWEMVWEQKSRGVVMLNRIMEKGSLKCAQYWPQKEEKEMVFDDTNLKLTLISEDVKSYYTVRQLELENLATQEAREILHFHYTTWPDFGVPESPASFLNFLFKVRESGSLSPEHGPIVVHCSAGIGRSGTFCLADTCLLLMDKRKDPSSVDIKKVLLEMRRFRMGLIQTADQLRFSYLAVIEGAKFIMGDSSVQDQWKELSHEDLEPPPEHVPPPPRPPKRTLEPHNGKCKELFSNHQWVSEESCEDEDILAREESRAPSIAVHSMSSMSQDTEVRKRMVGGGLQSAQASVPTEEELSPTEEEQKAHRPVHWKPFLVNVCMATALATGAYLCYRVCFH
Procedure: The phosphopeptides were used as substrates of PTPase 1B, a single catalytic domain PTPase with a […] tissue distribution (Hunter et al., 1989, cell 58:1013). Rat PTPase 1B (Guan et al., 1990, Proc. Natl., Acad. Sci. USA 87:1501) was obtained by PCR and cloning the full-length cDNA into the bacterial expression vector, PKK233-2.
Sequence specificity for peptide dephosphorylation was observed, with apparent Km values ranging from <2 μM for the phospho-middle t sequence to >2 mM for pTyr itself (Table 3).
Several phosphono peptides were tested for the ability to inhibit PTPase 1B activity and KI values determined by methods known to those skilled in the art.

T1 sequence (P27986 333-428 limits assumed): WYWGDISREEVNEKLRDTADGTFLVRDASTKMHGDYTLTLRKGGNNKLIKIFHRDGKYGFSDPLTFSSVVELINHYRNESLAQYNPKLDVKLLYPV
T2 sequence (Q63787 whole entry, one chain of several): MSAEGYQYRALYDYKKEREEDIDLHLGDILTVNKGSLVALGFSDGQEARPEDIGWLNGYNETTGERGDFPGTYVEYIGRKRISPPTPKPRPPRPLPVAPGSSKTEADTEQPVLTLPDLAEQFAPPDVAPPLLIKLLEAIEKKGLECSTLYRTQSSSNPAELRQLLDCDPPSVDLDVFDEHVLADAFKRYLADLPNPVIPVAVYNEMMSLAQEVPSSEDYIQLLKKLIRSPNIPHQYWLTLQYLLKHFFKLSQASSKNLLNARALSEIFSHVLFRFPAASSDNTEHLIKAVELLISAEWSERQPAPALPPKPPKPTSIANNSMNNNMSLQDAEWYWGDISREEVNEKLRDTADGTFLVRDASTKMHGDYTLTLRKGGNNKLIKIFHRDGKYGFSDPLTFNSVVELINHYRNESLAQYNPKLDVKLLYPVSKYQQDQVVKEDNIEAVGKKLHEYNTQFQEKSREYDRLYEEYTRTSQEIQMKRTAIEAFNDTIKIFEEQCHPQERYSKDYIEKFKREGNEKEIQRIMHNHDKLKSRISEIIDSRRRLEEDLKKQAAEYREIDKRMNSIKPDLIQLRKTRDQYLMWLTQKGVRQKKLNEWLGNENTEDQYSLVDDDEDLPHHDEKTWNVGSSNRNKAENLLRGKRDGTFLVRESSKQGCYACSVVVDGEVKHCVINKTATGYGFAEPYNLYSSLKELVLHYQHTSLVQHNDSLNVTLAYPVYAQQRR
T4 sequence (P27986 333-428 limits assumed): as the sequence (P27986 333-428 limits assumed) above
T3 sequence (P26450 whole entry): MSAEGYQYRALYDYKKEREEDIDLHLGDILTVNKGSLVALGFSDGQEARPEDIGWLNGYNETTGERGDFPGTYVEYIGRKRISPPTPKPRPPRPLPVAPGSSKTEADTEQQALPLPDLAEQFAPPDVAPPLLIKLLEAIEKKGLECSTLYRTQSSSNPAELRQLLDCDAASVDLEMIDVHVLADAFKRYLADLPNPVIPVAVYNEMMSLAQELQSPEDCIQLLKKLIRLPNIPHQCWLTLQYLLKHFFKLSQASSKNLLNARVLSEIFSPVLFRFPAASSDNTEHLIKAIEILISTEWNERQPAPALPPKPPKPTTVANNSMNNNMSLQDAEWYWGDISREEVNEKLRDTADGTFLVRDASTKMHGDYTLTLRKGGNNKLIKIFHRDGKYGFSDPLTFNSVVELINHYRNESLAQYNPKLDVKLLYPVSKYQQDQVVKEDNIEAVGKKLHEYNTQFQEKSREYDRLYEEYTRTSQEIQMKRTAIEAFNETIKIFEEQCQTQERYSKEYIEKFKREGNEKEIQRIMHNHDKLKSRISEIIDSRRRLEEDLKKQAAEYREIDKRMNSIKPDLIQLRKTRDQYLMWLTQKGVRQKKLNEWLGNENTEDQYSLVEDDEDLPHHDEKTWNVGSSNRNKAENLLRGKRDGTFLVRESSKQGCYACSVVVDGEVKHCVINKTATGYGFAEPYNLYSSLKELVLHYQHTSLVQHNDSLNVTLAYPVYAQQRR

CSCC[C@H](NC(=O)[C@@H]1CCCN1C(=O)[C@H](CCSC)NC(=O)[C@@H](Cc1ccc(CP(=O)(O)O)cc1)NC(=O)[C@H](CCC(=O)O)NC(=O)[C@H](CCC(=O)O)NC(=O)[C@@H](N)CCC(=O)O)C(=O)N[C@@H](CCC(=O)O)C(=O)N[C@@H](CC(=O)O)C(=O)N[C@@H](CC(C)C)C(=O)N[C@@H](Cc1ccc(O)cc1)C(=O)O [D-mT-Pmp315] (H-EEE[dPmp]MPMEDLY-OH)
IC50 [1]: 131 µM

pY628: phosphorylated form of IRS-1 YMXM sequence Y628 (SEQ ID NO: 26, Table 1) (RKGNGDG[pY]MPMSPKSV)
ED50 for inhibition of IRS-1/PI 3-kinase association [2]: ≤ 0.05 µM

RENEYMPMAPQIH [unphosphorylated peptide, unphosphorylated version of the hamster mT peptide]
effect on association of labelled proteins (110 kDa doublet, 85 kDa) with mT/pp60^c-src [3]: did not affect this association
effect on association of PtdIns 3-kinase with mT/pp60^c-src ([4]; listed as non-phosphorylated peptide): had no effect on the association
effect on association of PtdIns 3-kinase with mT/pp60^c-src ([4]; listed as unphosphorylated version of the peptide): did not affect the association
activity on association between pp60^c-grc /mT and PI 3-kinase [5]: no detectable activity

CSCC[C@H](NC(=O)[C@@H]1CCCN1C(=O)[C@H](CCSC)NC(=O)[C@H](Cc1ccc(CP(=O)(O)O)cc1)NC(=O)[C@H](CCC(=O)O)NC(=O)[C@H](CCC(=O)O)NC(=O)[C@@H](N)CCC(=O)O)C(=O)N[C@@H](CCC(=O)O)C(=O)N[C@@H](CC(=O)O)C(=O)N[C@@H](CC(C)C)C(=O)N[C@@H](Cc1ccc(O)cc1)C(=O)O [L-mT-Pmp315] (H-EEE[Pmp]MPMEDLY-OH)
IC50 [1]: 7.2 µM
Kd [6]: 0.01 to 0.02 µM

CC[C@H](C)[C@H](NC(=O)[C@H](CC(=O)O)NC(=O)[C@@H](N)CCCNC(=N)N)C(=O)N[C@@H](Cc1ccc(CP(=O)(O)O)cc1)C(=O)N[C@@H](CCC(=O)O)C(=O)N[C@H](C(=O)N[C@@H](CC(=O)O)C(=O)N[C@@H](Cc1ccc(O)cc1)C(=O)N[C@@H](Cc1ccc(O)cc1)C(=O)N[C@@H](CCCNC(=N)N)C(=O)N[C@@H](CCCCN)C(=O)O)[C@@H](C)O [IR1155-1165(L-Pmp1158), RDI[L-Pmp]ETDYYRK] (H-RDI[Pmp]ETDYYRK-OH; N-terminus assumed)
Ki ([7]; Pmp and Pmp-peptides as inhibitors): 30 µM

CC[C@H](C)[C@H](NC(=O)[C@H](CCC(N)=O)NC(=O)[C@@H]1CCCN1C(=O)[C@H](C)NC(=O)[C@H](CCSC)NC(=O)[C@@H]1CCCN1C(=O)[C@H](CCSC)NC(=O)[C@H](Cc1ccc(OP(=O)(O)O)cc1)NC(=O)[C@H](CCC(=O)O)NC(=O)[C@H](CC(N)=O)NC(=O)[C@H](CCC(=O)O)NC(=O)[C@@H](N)CCCNC(=N)N)C(=O)N[C@@H](Cc1c[nH]cn1)C(=O)O [middle t(pY298), RENEpYMPMAPQIH] (H-RENE[pY]MPMAPQIH-OH)
Km ([7]; apparent Km, phosphotyrosine and pY-peptides as substrates): < 2 µM

— patent US5801149A, “Inhibition of signal transduction molecules” (Joslin D-abetes Center, Inc., priority 1995, dated 1998)
